What was measured:
MAO-B = conditions: literature values (ref. 45), cited from earlier work; for IC50: read-out: IC50 of MAO-B inhibition; for Ki: read-out: Ki of MAO-B inhibition
neurons = assay: Neuroprotection against glutamate-induced apoptosis of cultured neurons (DAPI staining); format: cell-based; conditions: glutamate 100 μM plus 10 μM glycine, 30 min pre-incubation, apoptosis after 24 h
Experimental: The exposure of neurons to glutamate was carried according to a slightly modified method (50): culture medium was removed and neurons were washed once with prewarmed 37° C. buffered Hanks' solution (5.26 mM KCl, 0.43 mM KH2H2PO4, 132.4 mM NaCl, 4.09 mM NaHCO3, 0.33 mM Na2HPO4, 20 mM glucose, 2 mM CaCl2, and 20 mM HEPES, pH 7.4) and pre-incubated in the absence or presence of several concentrations of AFA extract (1-50 nM), PC (10-1000 nM), PCB (10-1000 nM) and MAA (1-10 μM) in prewarmed 37° C. buffered Hanks' solution. After 30 min of pre-incubation, L-glutamate was added from concentrated solutions to the final concentration indicated 100 μM plus 10 μM glycine. […]
Apoptosis was assessed by staining the nuclei of cells with DAPI (50), a membrane-permeable fluorescent dye that binds DNA and allows quantification of apoptotic neurons, i.e., neurons displaying fragmented or condensed nuclei. […] Cells were scored for chromatin condensation by fluorescence microscopy, using a fluorescein filter (330-380 excitation; 30× magnification). Total and apoptotic nuclei were counted. In all cases, approximately 600-1,000 cells were counted per well by an operator blind to the protocol design. Measurements from individual cultures were performed in duplicate and results are expressed as the mean S.E.M. values for the number of culture preparations indicated. […]

Compound	Inhibition type (MAO-B)	IC50 (MAO-B)	Ki (MAO-B)	amount lowering apoptosis below the control level (neurons)
Epicatechine	Mixed	58.9 µM	21 µM	–
COc1ccc(C(C)=O)c(O)c1 [Paeonol]	Competitive	42.5 µM	38.2 µM	–
phycocyanobilin [PCB]	–	–	–	approximately 10 nM
Cc1cc(O)c2c(c1)C(=O)c1cc(O)cc(O)c1C2=O [Emodin]	Mixed	35.4 µM	15.1 µM	–
Oc1cc(O)c2c(c1)OC(c1ccc(O)c(O)c1)C(O)C2 (stereo not drawn) [Catechine]	Mixed	88.6 µM	–	–
